Results published in publication PMC7775894 (Bioorganic chemistry, 2020).
≈ marks a conversion by molar mass, not a printed value. Where “and” joins values, the source holds several entries; their conditions need not be identical. Equal entries are not always repeated. Where two headings read alike, the source gives them in different places.

Columns and labels:
M. tb V2475/MDR = assay: microbe, parasite or virus in culture; assay type: cell-based; conditions: Mycobacterium tuberculosis, read-out: M. tb MIC V2475/MDR
M. tb KZN494/MDR = assay: microbe, parasite or virus in culture; assay type: cell-based; conditions: Mycobacterium tuberculosis, read-out: M. tb MIC KZN494/MDR
M. tb TF274/XDR = assay: microbe, parasite or virus in culture; assay type: cell-based; conditions: Mycobacterium tuberculosis, read-out: M. tb MIC TF274/XDR
M. tb R506/XDR = assay: microbe, parasite or virus in culture; assay type: cell-based; conditions: Mycobacterium tuberculosis, read-out: M. tb MIC R506/XDR
M. tb H37Rv strain = conditions: cited from earlier work

| SMILES | MIC (M. tb V2475/MDR) [µM] | MIC (M. tb KZN494/MDR) [µM] | MIC (M. tb TF274/XDR) [µM] | MIC (M. tb R506/XDR) [µM] | MIC (M. tb H37Rv strain; listed as ethambutol) [µM] | MIC (M. tb H37Rv strain; ref 22) |
| --- | --- | --- | --- | --- | --- | --- |
| O=C(Nc1cc(Cl)cc(Cl)c1)NC12CC3CC(CC(C3)C1)C2 [10a, 1-(1-Adamantyl)-3-(3,5-dichlorophenyl)urea] | 1.47 to 2.95 (≈ 0.499 to 1 µg/mL) | 1.47 (≈ 0.499 µg/mL) | 0.74 (≈ 0.251 µg/mL) | 0.74 (≈ 0.251 µg/mL) | – | – |
| O=C(NC12CC3CC(CC(O)(C3)C1)C2)c1cc2ccc(Br)cc2[nH]1 [8i, 6-bromo-N-(3-hydroxyadamantan-1-yl)-1H-indole-2-carboxamide] | 5.14 (≈ 2 µg/mL) | 2.57 to 5.14 (≈ 1 to 2 µg/mL) | 2.57 (≈ 1 µg/mL) | 2.57 (≈ 1 µg/mL) | – | – |
| COc1cccc2[nH]c(C(=O)NC34CC5CC(CC(C5)C3)C4)cc12 [8b, N-(1-Adamantyl)-4-methoxy-1H-indole-2-carboxamide] | 0.096 (≈ 0.0311 µg/mL) | 0.048 (≈ 0.0156 µg/mL) | 0.024 to 0.048 (≈ 0.00779 to 0.0156 µg/mL) | 0.024 to 0.048 (≈ 0.00779 to 0.0156 µg/mL) | – | – |
| CC[C@@H](CO)NCCN[C@@H](CC)CO [EMB, ethambutol] | – | – | – | – | 4.89 (≈ 0.999 µg/mL) | 4.89 [22] μM |
| O=C(NC12CC3CC(CC(C3)C1)C2)c1cc2c(F)cc(F)cc2[nH]1 [8k, N-(1-Adamantyl)-4,6-difluoro-1H-indole-2-carboxamide] | 0.024 (≈ 0.00793 µg/mL) | 0.024 (≈ 0.00793 µg/mL) | 0.012 (≈ 0.00396 µg/mL) | 0.012 (≈ 0.00396 µg/mL) | – | – |
| COc1ccc2[nH]c(C(=O)NC34CC5CC(CC(C5)C3)C4)cc2c1 [8d, N-(1-Adamantyl)-5-methoxy-1H-indole-2-carboxamide] | 0.39 to 0.77 (≈ 0.127 to 0.25 µg/mL) | 0.39 (≈ 0.127 µg/mL) | 0.39 (≈ 0.127 µg/mL) | 0.39 (≈ 0.127 µg/mL) | – | – |
| O=C(O)c1cn(C2CC2)c2cc(N3CCNCC3)c(F)cc2c1=O [CPF, Ciprofloxacin, reference compound] | – | – | 6.04 (≈ 2 µg/mL) | 6.04 (≈ 2 µg/mL) | – | – |
| Cc1ccc2[nH]c(C(=O)NC34CC5CC(CC(C5)C3)C4)cc2c1 [8f, N-(1-Adamantyl)-5-methyl-1H-indole-2-carboxamide] | 0.2 (≈ 0.0617 µg/mL) | 0.2 (≈ 0.0617 µg/mL) | 0.1 to 0.2 (≈ 0.0308 to 0.0617 µg/mL) | 0.1 to 0.2 (≈ 0.0308 to 0.0617 µg/mL) | – | – |
| NNC(=O)c1ccncc1 [INH, isoniazid] | – | – | – | – | – | 0.29 μM and 0.29 [22] μM |
| O=C(NC12CC3CC(CC(O)(C3)C1)C2)c1cc2c(Cl)cc(Cl)cc2[nH]1 [8j, 4,6-dichloro-N-(3-hydroxyadamantan-1-yl)-1H-indole-2-carboxamide] | 2.64 (≈ 1 µg/mL) | 1.32 (≈ 0.501 µg/mL) | 0.66 (≈ 0.25 µg/mL) | 0.66 (≈ 0.25 µg/mL) | – | – |
| O=C(Nc1ccc(F)c(F)c1F)NC1C2CC3CC(C2)CC1C3 (centres unmarked) [compound 4] | – | – | – | – | – | 0.096 to 0.19 µM |
| O=C(NC12CC3CC(CC(O)(C3)C1)C2)c1cc2c(F)cc(F)cc2[nH]1 [8l, 4,6-difluoro-N-(3-hydroxyadamantan-1-yl)-1H-indole-2-carboxamide] | 5.77 (≈ 2 µg/mL) | 2.89 (≈ 1 µg/mL) | 1.44 (≈ 0.499 µg/mL) | 2.89 (≈ 1 µg/mL) | – | – |
